From ChEMBL document CHEMBL5260859, “Discovery and structure-activity relationship study of 2-piperazinyl-benzothiazole derivatives as potent and selective PPARδ agonists” (Bioorg Med Chem, 2023) come the findings set out here.

The term EC50 denotes the concentration giving half of the maximal effect.

In experiment [1] the target is T1, Peroxisome proliferator-activated receptor delta (Homo sapiens, UniProt Q03181).
T1 sequence (Q03181 whole entry): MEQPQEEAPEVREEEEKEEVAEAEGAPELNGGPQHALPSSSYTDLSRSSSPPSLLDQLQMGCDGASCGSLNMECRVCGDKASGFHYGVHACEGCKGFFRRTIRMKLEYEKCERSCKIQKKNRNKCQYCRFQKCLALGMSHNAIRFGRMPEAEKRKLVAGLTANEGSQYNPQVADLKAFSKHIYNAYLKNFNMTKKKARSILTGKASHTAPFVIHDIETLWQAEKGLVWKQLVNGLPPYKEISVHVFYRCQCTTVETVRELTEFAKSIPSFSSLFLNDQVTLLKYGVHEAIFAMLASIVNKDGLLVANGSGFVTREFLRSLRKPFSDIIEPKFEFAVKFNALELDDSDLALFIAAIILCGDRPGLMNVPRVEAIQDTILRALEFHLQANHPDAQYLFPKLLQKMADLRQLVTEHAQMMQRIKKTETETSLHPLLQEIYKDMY
As to the kind of experiment: Agonist activity at Gal4-fused human PPAR-delta ligand binding domain expressed in CHO-K1 cells assessed as receptor transactivation incubated for 24 to 48 hrs by luciferase reporter gene assay. It counts as cell-based. For orientation: Reporter assays use an easily measured gene product as a stand-in for the process of interest.

The target in experiment [2] is T2, Peroxisome proliferator-activated receptor delta (Homo sapiens) (UniProt Q03181).
T2 sequence (whole entry): T1 sequence (Q03181 whole entry)
Description: Agonist activity at Gal4-fused human PPAR-delta ligand binding domain expressed in CHO-K1 cells assessed as receptor transactivation incubated for 24 to 48 hrs by luciferase reporter gene assay relative to control. The settings on record: time lower 24.0 hrs, time upper […]. The format is cell-based.

In experiment [3] the target is T3, Peroxisome proliferator-activated receptor delta (Mus musculus, UniProt P35396).
T3 sequence (P35396 whole entry): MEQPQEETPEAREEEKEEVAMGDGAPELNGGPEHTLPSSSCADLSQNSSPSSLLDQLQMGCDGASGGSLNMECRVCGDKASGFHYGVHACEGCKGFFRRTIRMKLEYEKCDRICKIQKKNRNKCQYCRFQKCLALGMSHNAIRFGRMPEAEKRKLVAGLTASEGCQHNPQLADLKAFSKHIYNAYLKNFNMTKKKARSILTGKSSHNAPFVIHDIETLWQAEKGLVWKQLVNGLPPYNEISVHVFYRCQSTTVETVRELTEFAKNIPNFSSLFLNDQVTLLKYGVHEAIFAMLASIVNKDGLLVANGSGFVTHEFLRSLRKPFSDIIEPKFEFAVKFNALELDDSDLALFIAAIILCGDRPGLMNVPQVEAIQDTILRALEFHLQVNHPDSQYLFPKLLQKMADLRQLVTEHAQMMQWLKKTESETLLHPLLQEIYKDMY
Description: Agonist activity at Gal4-fused mouse PPAR-delta ligand binding domain expressed in CHO-K1 cells assessed as receptor transactivation incubated for 24 to 48 hrs by luciferase reporter gene assay. It counts as cell-based.

Experiment [4] has as its target T4, Peroxisome proliferator-activated receptor delta (Mus musculus) (UniProt P35396).
T4 sequence (whole entry): T3 sequence (P35396 whole entry)
Description: Agonist activity at Gal4-fused mouse PPAR-delta ligand binding domain expressed in CHO-K1 cells assessed as receptor transactivation incubated for 24 to 48 hrs by luciferase reporter gene assay relative to control. The format is cell-based. The settings on record: time lower 24.0 hrs, time upper […].

Experiment [5] has as its target T5, Peroxisome proliferator-activated receptor alpha (Mus musculus, UniProt P23204).
T5 sequence (P23204 whole entry): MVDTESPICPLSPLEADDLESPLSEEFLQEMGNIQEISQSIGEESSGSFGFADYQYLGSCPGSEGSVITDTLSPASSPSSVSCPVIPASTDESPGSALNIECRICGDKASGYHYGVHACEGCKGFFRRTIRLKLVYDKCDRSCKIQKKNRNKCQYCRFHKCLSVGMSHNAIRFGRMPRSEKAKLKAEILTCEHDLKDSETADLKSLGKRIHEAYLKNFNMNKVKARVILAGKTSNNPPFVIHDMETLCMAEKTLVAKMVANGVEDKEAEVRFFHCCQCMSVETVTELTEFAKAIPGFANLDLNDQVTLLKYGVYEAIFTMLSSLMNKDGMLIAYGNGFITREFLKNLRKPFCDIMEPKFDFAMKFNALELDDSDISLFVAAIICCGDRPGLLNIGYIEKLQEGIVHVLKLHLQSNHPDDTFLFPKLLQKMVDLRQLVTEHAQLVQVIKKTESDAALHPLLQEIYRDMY
Description: Agonist activity at Gal4-fused mouse PPAR-alpha ligand binding domain expressed in CHO-K1 cells assessed as receptor transactivation incubated for 24 to 48 hrs by luciferase reporter gene assay. The format is cell-based.

Experiment [6] has as its target T6, Peroxisome proliferator-activated receptor alpha (Mus musculus) (UniProt P23204).
T6 sequence (whole entry): T5 sequence (P23204 whole entry)
As to the kind of experiment: Agonist activity at Gal4-fused mouse PPAR-alpha ligand binding domain expressed in CHO-K1 cells assessed as receptor transactivation incubated for 24 to 48 hrs by luciferase reporter gene assay relative to control. It counts as cell-based. The settings on record: time lower 24.0 hrs, time upper […].

In experiment [7] the target is T7, Peroxisome proliferator-activated receptor gamma (Mus musculus, UniProt P37238).
T7 sequence (P37238 whole entry): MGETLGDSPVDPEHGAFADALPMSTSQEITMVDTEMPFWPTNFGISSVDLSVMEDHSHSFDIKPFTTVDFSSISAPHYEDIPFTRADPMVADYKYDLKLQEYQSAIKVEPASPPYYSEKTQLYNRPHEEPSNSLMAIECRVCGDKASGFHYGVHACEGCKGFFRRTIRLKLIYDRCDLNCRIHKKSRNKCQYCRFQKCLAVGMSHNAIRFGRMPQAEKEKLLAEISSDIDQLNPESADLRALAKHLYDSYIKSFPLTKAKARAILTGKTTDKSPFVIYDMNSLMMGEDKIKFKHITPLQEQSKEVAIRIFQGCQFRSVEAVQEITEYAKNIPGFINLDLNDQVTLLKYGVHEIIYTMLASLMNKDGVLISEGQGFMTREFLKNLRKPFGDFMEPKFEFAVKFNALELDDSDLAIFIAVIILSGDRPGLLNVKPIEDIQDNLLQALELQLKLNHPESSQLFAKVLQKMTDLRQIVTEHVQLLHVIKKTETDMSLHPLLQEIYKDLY
Description: Agonist activity at Gal4-fused mouse PPAR-gamma ligand binding domain expressed in CHO-K1 cells assessed as receptor transactivation incubated for 24 to 48 hrs by luciferase reporter gene assay. It counts as cell-based.

Experiment [8] concerns the target T8, Peroxisome proliferator-activated receptor alpha (Homo sapiens) (UniProt Q07869).
T8 sequence (whole entry): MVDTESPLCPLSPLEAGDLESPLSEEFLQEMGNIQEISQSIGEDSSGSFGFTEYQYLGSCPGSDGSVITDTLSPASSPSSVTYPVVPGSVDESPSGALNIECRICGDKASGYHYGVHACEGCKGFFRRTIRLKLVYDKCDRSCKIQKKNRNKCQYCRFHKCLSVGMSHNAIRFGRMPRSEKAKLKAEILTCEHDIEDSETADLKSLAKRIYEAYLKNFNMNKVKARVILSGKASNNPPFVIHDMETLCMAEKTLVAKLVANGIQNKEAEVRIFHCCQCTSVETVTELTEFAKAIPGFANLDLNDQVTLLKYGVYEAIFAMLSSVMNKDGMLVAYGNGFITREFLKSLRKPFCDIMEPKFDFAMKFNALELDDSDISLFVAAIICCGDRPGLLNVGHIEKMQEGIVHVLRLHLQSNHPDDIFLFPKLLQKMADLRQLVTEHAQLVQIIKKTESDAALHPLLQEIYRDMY
Description: Agonist activity at Gal4-fused human PPAR-alpha ligand binding domain expressed in CHO-K1 cells assessed as receptor transactivation incubated for 24 to 48 hrs by luciferase reporter gene assay relative to control. The format is cell-based. The settings on record: time lower 24.0 hrs, time upper […].

Experiment [9] concerns Mus musculus. Description: Antihypercholesterolemic activity against hApoB100/hCETP-dTg hypercholesterolemic mouse model assessed as serum HDL-C level at 3 mg/kg, po administered once daily for 8 days. It counts as functional. The settings on record: time 8 day.
The test system of experiment [10] is Mus musculus. As to the kind of experiment: Antihypercholesterolemic activity against hApoB100/hCETP-dTg hypercholesterolemic mouse model assessed as serum non-HDL-C level at 3 mg/kg, po administered once daily for 8 days. The format is functional. The settings on record: time 8 day.

As for `C[C@@H]1CN(CCOc2cc(CC(=O)O)ccc2Cl)CCN1c1nc2ccc(Cl)cc2s1`, the half-maximal effective concentration (EC50) in experiment [1] was found to be 7.9 nM; in experiment [3], 46 nM; in experiment [5], 3900 nM; in [7], 4.1 nM. Further, the Emax in [2] came out at 21.9%; in experiment [4], 27.6%; in experiment [6] it was 12.5%.
Take `C[C@H]1CN(c2nc3ccc(Cl)cc3s2)CCN1CCOc1cc(CC(=O)O)ccc1Cl`: the values for the EC50 in [1], in [3] and in [5] were 5 nM, 12 nM and 7100 nM, respectively. Besides, the results for the Emax in experiment [2], in [4] and in experiment [6] were 15.5%, 23.2% and 8.3%, respectively.
For `CC1CN(c2nc3ccc(Cl)cc3s2)CCC1CCOc1cc(CC(=O)O)ccc1Cl` (configuration not stated), the Emax was 3% in experiment [8], 28.7% in [4] and 14.2% in experiment [6]. The EC50 in experiment [3] worked out at 47 nM; in [5], 3600 nM; in [7] it was 1000 nM.
Consider `Cc1cc(SCc2sc(-c3ccc(C(F)(F)F)cc3)nc2C)ccc1OCC(=O)O` [GW501516], for which the Activity with Mus musculus [9] was 141%; with Mus musculus [10], 67%.
`Cc1cc(CC(=O)O)cc(CN2CCN(c3nc4ccc(C(F)(F)F)cc4s3)C[C@H]2C)c1`: the EC50 worked out at 9.9 nM in experiment [1], 34 nM in experiment [3] and 8000 nM in experiment [5]. Besides, the Emax was determined as 15.5% in [2], 22.1% in experiment [4] and 19% in [6].
In the case of `CC[C@@H]1CN(Cc2cc(C)cc(CC(=O)O)c2)CCN1c1nc2ccc(C(F)(F)F)cc2s1`, the Emax in experiment [4] is 33.1%; in experiment [6], 2.8%. Further, the EC50 in experiment [5] worked out at 8500 nM; in experiment [7], 40 nM.
`C[C@H]1CN(CCOc2cc(CC(=O)O)ccc2Cl)CCN1c1nc2ccc(Cl)cc2s1`: the EC50 in [1] stood at 17 nM; in experiment [3] it was 27 nM; in experiment [5], 13000 nM; in [7], 150 nM. For the same compound, the Emax was 23.9% in experiment [2], 27.9% in [4] and 16.7% in experiment [6].
In the case of `Cc1cc(CC(=O)O)cc(CN2CCN(c3nc4ccc(C(F)(F)F)cc4s3)[C@H](C(C)C)C2)c1`, the concentration for a half-maximal effect (EC50) in [1] came to 3.7 nM; in [3], 7.5 nM; in experiment [7], 230 nM. For the same compound, the Emax in [2] came out at 13.1%; in [4], 14.6%; in experiment [6] it was 1.3%.
As for `C[C@@H]1CN(c2nc3ccc(Cl)cc3s2)CCN1CCOc1cc(CC(=O)O)ccc1Cl`, the EC50 in experiment [1] came to 16 nM; in experiment [3] it was 47 nM; in experiment [5] it was 3200 nM. Also, the Emax in [2] came out at 19.8%; in [4], 28.3%; in [6] it was 21%.
For `CC[C@H]1CN(Cc2cc(C)cc(CC(=O)O)c2)CCN1c1nc2ccc(C(F)(F)F)cc2s1`, the Emax in experiment [4] amounted to 30.8%; in [6] it was 9.1%. Further, the EC50 in [5] stood at 3800 nM; in experiment [7], 670 nM.
In the same order, the values of `Cc1cc(CC(=O)O)cc(CN2CCN(c3nc4ccc(C(F)(F)F)cc4s3)CC2)c1` are 19%, 6.6%, 3000 nM and 3300 nM.
Take `Cc1cc(CC(=O)O)cc(CN2CCN(c3nc4ccc(C(F)(F)F)cc4s3)C[C@@H]2C)c1`: the EC50 in experiment [1] came to 6.9 nM; in [3], 28 nM. The Emax in [2] worked out at 19.5%; in experiment [4], 22.1%; in experiment [6] it was 1.1%.
With `CC[C@H]1CN(c2nc3ccc(Cl)cc3s2)CCC1CCOc1cc(CC(=O)O)ccc1Cl` (some centres not stated), the EC50 is 5.8 nM in experiment [3], 3400 nM in experiment [5] and 390 nM in experiment [7]. Besides, the Emax in [4] came out at 31.3%; in experiment [6], 6.1%.
In the same order, the values of `Cc1ccc(CC(=O)O)cc1OCCN1CCN(c2nc3ccc(Cl)cc3s2)C[C@@H]1C` are 25 nM, 4900 nM, 500 nM, 21.7% and 6.9%.
Regarding `Cc1ccc(CC(=O)O)cc1OCCN1CCN(c2nc3ccc(Cl)cc3s2)CC1`, the EC50 in experiment [1] was found to be 33 nM; in experiment [3] it was 110 nM. In addition, the Emax in experiment [2] came out at 14.4%; in experiment [4], 25.3%.
